Source: US20070112043A1, “Acylated and non-acylated imidazo[2,1-b]-1,3,4,-thiadiazole-2-sulfonamides, and uses thereof” (priority 2003, published 2007)
In brackets after ≈: the same amount, converted by molar mass. Several values for one entry are separate records, joined by “and”; a condition that tells them apart may be missing. Equal values may be shown once. Entries after “also recorded” stand apart in the source; their conditions may differ. Read-outs that look alike come from different tables or passages of the source.

What was measured:
[1] = Conversion to primary sulfonamide in rat primary hepatocytes; type: in vitro ADME; settings: 90 minutes
Method: (§1) Compound 15 is converted to compound 1 in the presence of liver microsomes using the procedure described by Cresteil, T., et al. (Cresteil, T., et al. Am. Soc. Pharm. Exper. Therapeutics, 2002, 30, 438-445). Upwards of 50% conversion is observed after 60 minutes. When incubated with rat primary hepatocytes, the conversion of compounds 15, 37, and 44 to their respective primary sulfonamides, 1, 11, and 13, is observed.

15N neuroblastoma cells = experiment: Alamar blue viability assay, 15N neuroblastoma; type: cell-based; settings: for IC50: cellular viability after 48 hours, compound dissolved in DMSO
Method: In order to investigate the anti-cancer potential of compounds represented by formula I-a, 15N neuroblastoma cells lines were treated with compound and assayed for cellular viability after 48 hours. The cellular viability of 15N neuroblastomas treated with compounds 1, 5, 6, 11, and 13 (dissolved in DMSO) are summarized in Table 5 (see Compound 152).
Compounds were tested for anti-cancer properties using the Alamar blue viability assay. Daoy human medulloblastoma cells of 15N neuroblastoma cells were plated at a density of 5000 cells per well of a 96 well plate and cultured in RPMI media supplemented with antibiotics and 5% fetal bovine serum. Cells in culture were incubated with compound for 48 hours after which time Alamar blue was added to the culture media. After 4 hours media was transferred to opaque white plates and fluorescence of transformed alamar blue was measured at excitation 535/emission 595).

Microsomal stability = type: in vitro ADME
[2] = Pharmacokinetics of primary sulfonamides and Na salts (oral, SC); type: in vivo; settings: for Cmax: aqueous 0.5 wt/vol % CMC/0.5 wt/vol % Tween 80 (semi-)suspension
Method: HPCD formulations of compounds represented by formula I also display improved pharmacokinetic properties as compared to compounds dissolved in water.
When compound 2 is administered at 10 mg/kg SC excellent plasma drug concentrations are observed_(Cmax=2.0 μg/mL, C1/2=0.8 hrs). […]

Du145 (prostate) = experiment: Clonogenic assay Du145; type: cell-based; settings: compound 24 hours, colonies counted after 7-10 days, read-out: ED50 (the source's name)
Method: (§2) In this paradigm, Du145 prostate, HCT116 colon, 15N Neuroblastoma, IMR32 Neuroblastoma, Daoy Medulloblastoma, and MDAMB231 breast cells are individually plated and allowed to proliferate for 48 hours. Compound is added to the culture and left on for 24 hours, at which time both compound and dead cells are washed off the plate. Fresh media is added and the cells are allowed to grow for an additional 7-10 days. The remaining healthy cells reproduce and formed localized colonies. These colonies are counted and EC50 values are determined relative to non-treated controls.
(§3) Du145 prostate, HCT116 colon, 15N Neuroblastoma, IMR32 Neuroblastoma, Daoy Medulloblastoma, and MDAMB231 breast cells were plated in 6 well plates and allowed to grow for 5 days._Cells were exposed to compound for 24 hours, the culture media was removed and replaced with fresh media. The cells were kept in cultured for 7-10 days after which colonies were counted and EC50 values were determined relative to non-treated controls.

HCT116 (colon) = experiment: Clonogenic assay HCT116; type: cell-based; settings: compound 24 hours, colonies counted after 7-10 days, read-out: ED50 (the source's name)
Method: as §2, §3

15 N (neuroblastoma) = experiment: Clonogenic assay 15N; type: cell-based; settings: compound 24 hours, colonies counted after 7-10 days, read-out: ED50 (the source's name)
Method: as §2, §3

Daoy (medulloblastoma) = experiment: Clonogenic assay Daoy; type: cell-based, human; settings: compound 24 hours, colonies counted after 7-10 days, read-out: ED50 (the source's name)
Method: as §2, §3

MDAMB231 (breast) = experiment: Clonogenic assay MDAMB231; type: cell-based; settings: compound 24 hours, colonies counted after 7-10 days, read-out: ED50 (the source's name)
Method: as §2, §3

SCG neurons = settings: cited from earlier work
Sprague Dawley rats = settings: 10 mg/kg, cited from earlier work
RG neurons = settings: intra-vitrial injection or SC 10 mg/kg, cited from earlier work
[3] = Stability of solutions/formulations; type: physicochemical; settings: for Stability in 10 wt/vol HPCD: PBS/HPCD (25:75) solution; for Stability of HPCD formulation: 10 wt/vol % HPCD, room temperature
From the text: (§4) This is illustrated for compound 15 in Table 7.

[4] = Pharmacokinetics and in vivo conversion of N-acylsulfonamides in rats (SC); design: species or system rat; settings: subcutaneously, 10 mg/mL
Method: When administered to rats subcutaneously, compound 15 (10 mg/mL) is well distributed (Cmax=20 μg/mL in plasma). Conversion of compound 15 to 1 is observed with plasma levels of 1 reaching a Cmax of 0.5-1 μg/mL. Conversion of compound 16 to compound 1 is observed with plasma levels of 1 reaching a Cmax of 3 μg/mL Similar in vivo conversion is observed for select compounds listed in table 5 with whole blood drug concentrations being similar to that of their respective primary sulfonamide sodium salts, represented by formula I-a, administered at the same dose in aqueous 10 wt/vol % HPCD.

log P = type: physicochemical
pH of formulation = type: physicochemical; settings: PBS/HPCD (25:75) solution
From the text: as §4

[5] = Conversion to primary sulfonamide in liver microsomes; type: in vitro ADME; settings: after 60 minutes
Method: as §1

[6] = Solubility in water and formulations; settings: for Solubility in 10 wt/vol HPCD: PBS/HPCD (25:75) solution; for Solubility 10 wt/vol % HPCD water: Na salts in aqueous 10 wt/vol % HPCD
Method: Alternatively, the sodium salt can be prepared in situ by dissolving the free acid in phosphate buffered saline (PBS) that has been buffered to a pH of 7.4. The solubility and stability of these solutions can be improved by the use of an aqueous soluble co-solvent such as, but not limited to HPCD. This solubility can be further improved by the addition of surfactants such as PEG 400. In general, the free acid is suspended in 10 wt/vol % HPDC (10 g dissolved in 100 mL water) and treated with 0.5M PBS (pH 7.4) such that the volumes are in a ratio of 75:25.

Male Sprague-Dawley rats = experiment: Rat model of cisplatin induced neuropathy (SNCV); type: in vivo; settings: for Cisplatin-induced loss in SNCV: 10-30 mg/kg, data not shown; for efficacy in cisplatin model of peripheral neuropathy: dose not stated
Method: (§5) Male Sprague-Dawley rats were administered 2.5 mg/kg cisplatin daily, for five consecutive days to achieve a final cumulative dose of 12.5 mg/kg. On the third day following the final cisplatin injection, animals received compounds SC at concentrations of (3, 10, and 30 mg/kg). Dosing continued Monday through Friday for three consecutive weeks. The effect of cisplatin on peripheral nerve function, and the ability of the compounds to attenuate the cisplatin effect were determined after three weeks of drug treatment by measuring the sensory nerve conduction velocity (SNCV) in the caudal nerve of the tail. Stimulating electrodes were used to deliver 2 mA pulses once per second for 1.5 min. The resulting compound sensory nerve action potentials were averaged, and the mean response onset time was determined from the averaged response. Two mean response times were determined, the second being 20 mm distal from the first. The difference in onset time between the two recordings was determined and used to calculate the conductance velocity.
Male Sprague-Dawley rats (weighing 200-225 g on arrival) were intraperitoneally administered 2.5 mg/kg cisplatin daily, for five consecutive days to achieve a final cumulative dose of 12.5 mg/kg. On the third day following the final cisplatin injection, animals received compounds SC at concentrations of (3, 10, and 30 mg/kg). Dosing continued Monday through Friday for three consecutive weeks.
as §5, with “The” for “Male Sprague-Dawley rats were administered 2.5 mg/kg cisplatin daily, for five consecutive days to achieve a final cumulative dose of 12.5 mg/kg. On the third day following the final cisplatin injection, animals received compounds SC at concentrations of (3, 10, and 30 mg/kg). Dosing continued Monday through Friday for three consecutive weeks. The”, “velocity. [formula]” for “velocity.”
The results of these experiments were combined, and ANOVA was performed, followed by a Fisher LSD test.

sciatic nerve = settings: 1 and 10 mg/kg; cited from earlier work
[7] = gavage 10 mg/kg, CMC/Tween 80 (semi-)suspension
[8] = Taxol induced cell death, read-out: Taxol SCG IC50
[9] = anti-NGF induced cell death, read-out: anit-NGF SCG IC50
[10] = 250 μL 0.5 M PBS + 250 μL 10% HPCD + 500 μL 20% PEG 400

CC(=O)NS(=O)(=O)c1nn2cc(-c3ccc(Oc4ccc(Cl)cc4)cc3)nc2s1 [Compound 44]
conversion rate to primary sulfonamide [1]: 12%

NS(=O)(=O)c1nn2c(Br)c(-c3ccccc3)nc2s1 [5-Br-6-Ph-ITS, 5-Bromo-6-phenylmidazo[2,1-b]-1,3,4,-thiadiazole-2-sulfonamide, reference compound]
IC50 (15N neuroblastoma cells): 3 µM
degradation in microsomal fractions (Microsomal stability): rapidly degraded; also recorded: rapidly consumer by microsomal fractions
Microsomal Stability (1 hr) (Microsomal stability): 0%

NS(=O)(=O)c1nn2cc(-c3ccccc3)nc2s1 [Compound 1]
oral bioavailability [2, 7]: moderate
Cmax ([2]; gavage 10 mg/kg): 0.2 µg/mL
IC50 (15N neuroblastoma cells): ~20 µM and 20 µM
Microsomal Stability (1 hr) (Microsomal stability): 90%
EC50 (Du145 (prostate)): 8 µM
EC50 (HCT116 (colon)): 12 µM
EC50 (15 N (neuroblastoma)): 7 µM
EC50 (Daoy (medulloblastoma)): > 5 µM
EC50 (MDAMB231 (breast)): > 5 µM
IC50 (SCG neurons; [8]): 7 µM
IC50 (SCG neurons; [9]): 22 µM
IC50 (SCG neurons; cisplatin induced cell death, read-out: cisplatin SCG IC50): 5 µM
IC50 (SCG neurons; vincristine induced cell death, read-out: vincristine SCG IC50): 10 µM
weight gain (Sprague Dawley rats; Taxol 9 mg/kg twice weekly for 3 weeks): normal weight gain
loss in foot pad contact (Sprague Dawley rats; Taxol alone 46% loss): 23%
histology of RG layer (RG neurons): healthy RG layers
electro-retinogram (ERG) (RG neurons; versus vehicle): significant improvements

NS(=O)(=O)c1nn2cc(-c3ccc4c(c3)OCCCO4)nc2s1 [Compound 7]
IC50 (SCG neurons; [8]): 7 µM

CC(=O)NS(=O)(=O)c1nn2cc(-c3ccccc3)nc2s1 [Compound 15]
Stability [3, 10]: >4 weeks
Stability ([3]; 1000 μL 0.5 M PBS): 1 to 2 days
Stability in 10 wt/vol HPCD [3]: >4 weeks
Cmax in plasma [4]: 20 µg/mL
log P (log P): 2.6
pH (pH of formulation): 7.4
conversion to compound 1 [5]: > 50%
conversion rate to primary sulfonamide [1]: 6%
dissolution ([6]; 25 mg in 1 mL PEG 400/ethanol (50:50) + ethanolamine (20 μL)): clear solution
clear solution concentration ([6]; 10 wt/vol % HPCD + 1 equiv of ethanolamine, dimethylaminoethanol or 4-aminopyridine): 5 to 10 mg/mL
solubility [6, 10]: 25 mg/mL
solubility ([6]; 250 μL 0.5 M PBS + 750 μL 10% HPCD): 10 mg/mL
Solubility in 10 wt/vol HPCD [6]: 10 mg/mL (≈ 31 mM)

COc1cccc(-c2ccc(-c3cn4nc(S([NH-])(=O)=O)sc4n3)cc2)c1.[Na+] [Compound 10]
Cisplatin-induced loss in SNCV (Male Sprague-Dawley rats): protective
efficacy in cisplatin model of peripheral neuropathy (Male Sprague-Dawley rats): efficacy
Stability of HPCD formulation [3]: >14 days
functional recovery (toe spread) (sciatic nerve): improved recovery
Solubility 10 wt/vol % HPCD water [6]: 10 mg/mL

NS(=O)(=O)c1nn2cc(-c3ccc(N4CCOCC4)cc3)nc2s1 [Compound 5]
IC50 (15N neuroblastoma cells): ~20 µM and 20 µM
Microsomal Stability (1 hr) (Microsomal stability): 100%
IC50 (SCG neurons; [8]): 7 µM
IC50 (SCG neurons; [9]): 22 µM

NS(=O)(=O)c1nn2cc(-c3ccc(-c4cccc(C(F)(F)F)c4)cc3)nc2s1 [Compound 11]
fold increase in activity over compound 1 (15N neuroblastoma cells; 15N neuroblastoma): 10 fold
IC50 (15N neuroblastoma cells): 2 µM
Microsomal Stability (1 hr) (Microsomal stability): 60%
EC50 (HCT116 (colon)): 1.5 µM
EC50 (15 N (neuroblastoma)): 0.75 µM
EC50 (Daoy (medulloblastoma)): 1 µM
EC50 (MDAMB231 (breast)): 1 µM
IC50 (SCG neurons; [8]): 2 µM

COCC(=O)NS(=O)(=O)c1nn2cc(-c3ccc(-c4cccc(C(F)(F)F)c4)cc3)nc2s1 [Compound 39]
Cisplatin-induced attenuation of SNCV (Male Sprague-Dawley rats; 30 mg/kg SC): protective activity
Stability in 10 wt/vol HPCD [3]: >1 weeks
log P (log P): 4.85
pH (pH of formulation): 7.4
Solubility in 10 wt/vol HPCD [6]: 10 mg/mL (≈ 20.1 mM)

[NH-]S(=O)(=O)c1nn2cc(-c3ccccc3)nc2s1.[Na+] [Compound 2]
Cisplatin-induced loss in SNCV (Male Sprague-Dawley rats): protective
efficacy in cisplatin model of peripheral neuropathy (Male Sprague-Dawley rats): efficacy
Stability of HPCD formulation [3]: >14 days
C1/2 ([2]; SC 10 mg/kg): 0.8 h
plasma Cmax ([2]; SC 10 mg/kg, 10 wt/vol % HPCD solution): 2.0 µg/mL
C1/2 [2, 7]: 0.9 h
oral bioavailability [2, 7]: improved
Cmax ([2]; gavage 10 mg/kg): 0.56 µg/mL
functional recovery (toe spread) (sciatic nerve): improved recovery
Solubility 10 wt/vol % HPCD water [6]: 20 mg/mL
Solubility Water ([6]; Na salts in water): 10 mg/mL

COc1cccc(-c2ccc(-c3cn4nc(S(N)(=O)=O)sc4n3)cc2)c1 [Compound 9]
IC50 (15N neuroblastoma cells): 5 µM
Microsomal Stability (1 hr) (Microsomal stability): 74%
IC50 (SCG neurons; [8]): 3 µM
